In PMC12435405:

Test: Double CuAAC of unprotected bis-azido peptide with triethynylphosphine oxide (1.2 eq), CuBr 10 eq, THPTA 20 eq; two-component cyclisation to ethynyl-ditriazolyl-phosphine oxide (EDPO) cyclic peptide; forms two 1,4-triazoles
Settings: the molecule shown is the open-chain precursor, NaOAc buffer (100 mM, pH 5)/MeCN 20%, ~2% DMSO, 1.0 mM, 25.0 °C, 0.083 h

CC(C)C[C@H](NC(=O)CN=[N+]=[N-])C(=O)N[C@@H](Cc1ccc(O)cc1)C(=O)N[C@@H](CCCNC(=N)N)C(=O)N[C@@H](C)C(=O)N[C@@H](CCCCN=[N+]=[N-])C(N)=O [N3-Gly(azidoacetyl)-Leu-Tyr-Arg-Ala-Lys(N3)-NH2]
ring closure, isolated yield (27-membered ring): 39%

[N-]=[N+]=NCCCC[C@H](NC(=O)CN)C(=O)N[C@@H](CCCNC(=N)N)C(=O)N[C@@H](CCCNC(=N)N)C(=O)N[C@@H](CCCNC(=N)N)C(=O)N[C@@H](CCCNC(=N)N)C(=O)N[C@@H](CCCNC(=N)N)C(=O)N[C@@H](CCCNC(=N)N)C(=O)N[C@@H](CCCNC(=N)N)C(=O)N[C@@H](CCCNC(=N)N)C(=O)N[C@@H](CCCCN=[N+]=[N-])C(=O)NCC(N)=O
ring closure, isolated yield (43-membered ring): 27%

[N-]=[N+]=NCCCC[C@H](NC(=O)CN)C(=O)N[C@@H](CCCNC(=N)N)C(=O)N[C@@H](CCCNC(=N)N)C(=O)N[C@@H](CCCNC(=N)N)C(=O)N[C@@H](CCCNC(=N)N)C(=O)N[C@@H](CCCNC(=N)N)C(=O)N[C@@H](CCCNC(=N)N)C(=O)N[C@@H](CCCNC(=N)N)C(=O)N[C@@H](CCCNC(=N)N)C(=O)N[C@@H](CCCNC(=N)N)C(=O)N[C@@H](CCCNC(=N)N)C(=O)N[C@@H](CCCCN=[N+]=[N-])C(=O)NCC(N)=O
ring closure, isolated yield (49-membered ring): 18%

[N-]=[N+]=NCCCC[C@H](NC(=O)[C@H](Cc1ccc(O)cc1)NC(=O)[C@H](CC(=O)O)NC(=O)CNC(=O)[C@H](CCCNC(=N)N)NC(=O)[C@H](CCCCN)NC(=O)CN=[N+]=[N-])C(N)=O [N3-Gly(azidoacetyl)-Lys-Arg-Gly-Asp-Tyr-Lys(N3)-NH2]
ring closure, isolated yield (30-membered ring): 41%

CC(=O)N[C@@H](CCC(=O)O)C(=O)N[C@H](C(=O)N[C@@H](Cc1ccccc1)C(=O)N[C@@H](CCCCN=[N+]=[N-])C(=O)N[C@@H](CC(=O)O)C(=O)N[C@@H](CC(C)C)C(=O)N[C@@H](Cc1c[nH]c2ccccc12)C(=O)N[C@@H](CCCNC(=N)N)C(=O)N[C@@H](CC(C)C)C(=O)N[C@@H](CC(C)C)C(=O)N[C@@H](CCCCN=[N+]=[N-])C(=O)N[C@@H](CCC(=O)O)C(=O)N[C@@H](CC(N)=O)C(N)=O)[C@@H](C)O
ring closure, isolated yield (37-membered ring): 24%

[N-]=[N+]=NCCCC[C@H](NC(=O)[C@@H](CCCNC(=N)N)NC(=O)[C@H](CCCNC(=N)N)NC(=O)[C@@H](CCCCN)NC(=O)[C@H](CCCCN)NC(=O)[C@@H](CCCNC(=N)N)NC(=O)CNC(=O)[C@@H](CCCNC(=N)N)NC(=O)[C@H](CCCNC(=N)N)NC(=O)[C@@H](CCCNC(=N)N)NC(=O)[C@@H](N)CCCCN=[N+]=[N-])C(N)=O
ring closure, isolated yield (46-membered ring): 39%
